Laboratory results taken from patent US8383786B2, “Pesticidal compositions” (Dow AgroSciences, LLC., priority 2009, dated 2013).

Key:
[1] = system: beet armyworm (BAW; Spodoptera exigua: Lepidoptera); assay: 128-well diet tray assay on beet armyworm (BAW 50); type: in vivo; details: 144 h, 50 ug/cm^2 of test compound on diet, second instar BAW larvae, 25° C., six days, average of eight wells, read-out: BAW 50 (percent mortality)
Description: (§1) Bioassays on beet armyworm (BAW; Spodoptera exigua: Lepidoptera) were conducted using either a 96-well microtiter plate-based high throughput (HTS) bioassay or a 128-well diet tray assay. The HTS assay is a based on a modification of Lewer et al. J. Nat. Prod. 2006, 69, 1506. BAW eggs were placed on top of artificial diet (100 microliters (μL)) in each well of 96-well microtiter plate. The diet was pretreated with test compounds (12 micrograms (μg) dissolved in 30 μL of DMSO-acetone-water mixture) layered on top of the diet using a liquid handling system and then allowed to dry for several hours. Infested plates were then covered with a layer of sterile cotton batting and the plate lid, and then held in the dark at 29° C. Mortality was recorded at 6 days (d) post-treatment. Each plate had six replicates. The percent mortality was calculated from the average of the six replicates. In the case of the 128-well diet assay, three to five second instar BAW larvae were placed in each well (3 mL) of the diet tray that had been previously filled with 1 mL of artificial diet to which 50 ug/cm^2 of the test compound (dissolved in 50 μL of 90:10 acetone/water mixture) had been applied (to each of eight wells) and then allowed to dry. Trays were covered with a clear self-adhesive cover, and held at 25° C., 14:10 light:dark for six days. Percent mortality was recorded for the larvae in each well; activity in the eight wells was then averaged. In Table 2 under both the BAW HTS and the BAW 50 headings, an “A” means that the compound was tested and at least 50 percent mortality was observed whereas, “B” means that either (1) the compound was tested and less than 50 percent mortality was observed or (2) the compound was not tested.

[2] = system: beet armyworm (BAW; Spodoptera exigua: Lepidoptera); assay: 96-well microtiter plate-based high throughput (HTS) bioassay on beet armyworm (BAW HTS); type: in vivo; details: 96-well plate; 12 μg test compound on 100 μL diet; BAW eggs; 29° C.; 6 days post-treatment; average of six replicates
Description: as §1

## CO[C@@H]1[C@@H](OC)[C@H](C)O[C@@H](OC2Cc3ccc(-c4ccnc(-c5ccc(Cl)cc5)n4)cc3C2)[C@@H]1OC (stereo partly drawn) [Compound 1C, 2-(4-Chlorophenyl)-4-[2-((2R,3R,4R,5S,6S)-3,4,5-trimethoxy-6-methyl-tetrahydropyran-2-yloxy)-indan-5-yl]-pyrimidine]
[1]
  mortality at 50 µg/cm2: > 50%
[2]
  BAW HTS (percent mortality): B (either (1) the compound was tested and less than 50 percent mortality was observed or (2) the compound was not tested)

## CO[C@@H]1[C@@H](OC)[C@H](C)O[C@@H](OC2Cc3ccc(-c4ccnc(-c5ccc(Cl)cc5Cl)n4)cc3C2)[C@@H]1OC (stereo partly drawn) [Compound 2C, 2-(2,4-Dichlorophenyl)-4-[2-((2R,3R,4R,5S,6S)-3,4,5-trimethoxy-6-methyl-tetrahydropyran-2-yloxy)-indan-5-yl]-pyrimidine]
[1]
  mortality at 50 µg/cm2: < 50%
[2]
  BAW HTS (percent mortality): A (the compound was tested and at least 50 percent mortality was observed)

## CO[C@@H]1[C@@H](OC)[C@H](C)O[C@@H](OC2Cc3ccc(-c4ccnc(-c5cccc(C(F)(F)F)c5)n4)cc3C2)[C@@H]1OC (stereo partly drawn) [Compound 3C, 2-(3-Trifluoromethylphenyl)-4-[2-((2R,3R,4R,5S,6S)-3,4,5-trimethoxy-6-methyl-tetrahydropyran-2-yloxy)-indan-5-yl]-pyrimidine]
[1]
  mortality at 50 µg/cm2: > 50%
[2]
  BAW HTS (percent mortality): B (either (1) the compound was tested and less than 50 percent mortality was observed or (2) the compound was not tested)

## CO[C@@H]1[C@@H](OC)[C@H](C)O[C@@H](OC2Cc3ccc(-c4ccnc(-c5ccc(C(F)(F)F)cc5)n4)cc3C2)[C@@H]1OC (stereo partly drawn) [Compound 4C, 2-(4-Trifluoromethylphenyl)-4-[2-((2R,3R,4R,5S,6S)-3,4,5-trimethoxy-6-methyl-tetrahydropyran-2-yloxy)-indan-5-yl]-pyrimidine]
[1]
  mortality at 50 µg/cm2: > 50%
[2]
  BAW HTS (percent mortality): B (either (1) the compound was tested and less than 50 percent mortality was observed or (2) the compound was not tested)

## COc1ccc(-c2nccc(-c3ccc4c(c3)CC(O[C@@H]3O[C@@H](C)[C@H](OC)[C@@H](OC)[C@H]3OC)C4)n2)cc1 (stereo partly drawn) [Compound 5C, 2-(4-methoxyphenyl)-4-[2-((2R,3R,4R,5S,6S)-3,4,5-trimethoxy-6-methyl-tetrahydropyran-2-yloxy)-indan-5-yl]-pyrimidine]
[1]
  mortality at 50 µg/cm2: > 50%
[2]
  BAW HTS (percent mortality): A (the compound was tested and at least 50 percent mortality was observed)

## CO[C@@H]1[C@@H](OC)[C@H](C)O[C@@H](OC2Cc3ccc(-c4ccnc(-c5cccnc5)n4)cc3C2)[C@@H]1OC (stereo partly drawn) [Compound 6C, 2-Pyridin-3-yl-4-[2-((2R,3R,4R,5S,6S)-3,4,5-trimethoxy-6-methyl-tetrahydropyran-2-yloxy)-indan-5-yl]-pyrimidine]
[1]
  mortality at 50 µg/cm2: < 50%
[2]
  BAW HTS (percent mortality): B (either (1) the compound was tested and less than 50 percent mortality was observed or (2) the compound was not tested)

## CO[C@@H]1[C@@H](OC)[C@H](C)O[C@@H](OC2Cc3ccc(-c4ccnc(-c5ccccc5)n4)cc3C2)[C@@H]1OC (stereo partly drawn) [Compound 7C, 2-Phenyl-4-[2-((2R,3R,4R,5S,6S)-3,4,5-trimethoxy-6-methyl-tetrahydropyran-2-yloxy)-indan-5-yl]-pyrimidine]
[1]
  mortality at 50 µg/cm2: < 50%
[2]
  BAW HTS (percent mortality): B (either (1) the compound was tested and less than 50 percent mortality was observed or (2) the compound was not tested)

## CO[C@@H]1[C@@H](OC)[C@H](C)O[C@@H](OC2Cc3ccc(-c4ccn(-c5ccc(C(F)(F)F)cn5)n4)cc3C2)[C@@H]1OC (stereo partly drawn) [Compound 8C, 5-trifluoromethyl-2-{3-[2-((2R,3R,4R,5S,6S)-3,4,5-trimethoxy-6-methyl-tetrahydropyran-2-yloxy)-indan-5-yl]-pyrazol-1-yl}-pyridine]
[1]
  mortality at 50 µg/cm2: > 50%
[2]
  BAW HTS (percent mortality): A (the compound was tested and at least 50 percent mortality was observed)

## CO[C@@H]1[C@@H](OC)[C@H](C)O[C@@H](OC2Cc3ccc(-c4ccn(-c5nnc(C(F)(F)F)s5)n4)cc3C2)[C@@H]1OC (stereo partly drawn) [Compound 9C, 2-trifluoromethyl-5-{3-[2-((2R,3R,4R,5S,6S)-3,4,5-trimethoxy-6-methyl-tetrahydropyran-2-yloxy)-indan-5-yl]-pyrazol-1-yl}-[1,3,4]thiadiazole]
[1]
  mortality at 50 µg/cm2: > 50%
[2]
  BAW HTS (percent mortality): A (the compound was tested and at least 50 percent mortality was observed)

## CO[C@@H]1[C@@H](OC)[C@H](C)O[C@@H](OC2Cc3ccc(-c4ccn(-c5ccc(OC(F)(F)C(F)(F)F)cc5)n4)cc3C2)[C@@H]1OC (some centres unmarked) [Compound 10C]
[1]
  mortality at 50 µg/cm2: > 50%
[2]
  BAW HTS (percent mortality): A (the compound was tested and at least 50 percent mortality was observed)
